# Measurements published in paper PMC5426640, “A novel multifunctional peptide oligomer of bacitracin with possible bioindustrial and therapeutic applications from a Korean food-source Bacillus strain” (PLoS ONE, 2017).
# Where a SMILES comes first, the peptide text is derived from it. Bridges are numbered along the chain shown (N, C = ends). [ ]: non-standard residue; d: D form. The star is where a group is joined. Ileψ(thiazoline)Cys = CC[C@H](C)[C@H](N)C1=N[C@H](C(=O)*)CS1; dOrn = NCCC[C@@H](N)C(=O)O
# Key:
# [1] = test system: Micrococcus luteus ATCC 9341; test: Thermostability, residual antimicrobial activity; assay type: physicochemical; settings: residual antimicrobial activity vs Micrococcus luteus ATCC 9341, mean ± SD, n = 3
# Protocol: (§1) After heat treatment (30–121°C, 10–60 min), the samples were tested for residual antimicrobial activity against indicator strain Micrococcus luteus ATCC 9341. Effects of pH on antimicrobial activity were estimated by varying the pH levels. Samples were diluted in the following buffers: citrate with Na2HPO4 (pH 3.0–7.0), Tris-HCl (pH 7.0–9.0), and NaHCO3 with NaOH (pH 10.0–11.0). After incubation for 1 h at room temperature, pH in the samples was adjusted to 7.0, and the samples were tested for antimicrobial activity against the indicator strain. The AMP was digested with various proteolytic enzymes at a final concentration of 1 mg/mL: […] (50 mM Tris-HCl, pH 7.5), protease K (50 mM Tris-HCl, pH 7.5), α-chymotrypsin (50 mM Tris-HCl, pH 7.5), or trypsin (50 mM Tris-HCl, pH 8.0). After 1-h incubation at room temperature, the enzymes were boiled for 2 min for inactivation.
# [2] = test system: Micrococcus luteus ATCC 9341; test: pH stability, residual antimicrobial activity; assay type: physicochemical; settings: 1 h at room temperature, residual antimicrobial activity vs indicator strain, n = 3
# Protocol: as §1
# [3] = test system: IκBα; test: Western blot of IκBα phosphorylation in LPS-stimulated RAW 264.7 cells; assay type: cell-based, mouse; settings: CSP32 1 h prior to LPS 1 μg/mL
# Protocol: (§2) Macrophages were incubated with or without LPS in the presence or absence of the AMPs. Cells were harvested, washed twice with ice-cold Tris-HCl-buffered saline (TBS), and resuspended in lysis buffer [100 mM Tris-HCl, 5 mM EDTA, 50 mM NaCl, 50 mM β- glycerophosphate, 50 mM NaF (sodium fluoride), 0.5% NP-40, 1% sodium deoxycholate, 0.1 mM sodium orthovanadate, and 1% phenylmethylsulfonyl fluoride (PMSF)]. The cytosolic fraction was obtained from the supernatant after […] centrifugation at 4°C for 20 min. Samples (20 μg in terms of protein) were separated by sodium dodecyl sulfate-polyacrylamide gel electrophoresis (SDS-PAGE) in a 10% gel and transferred to polyvinylidene difluoride (PVDF) membranes. The membranes were blocked with 5% nonfat milk in TBS with Tween 20 (0.1%) for 2 h and then incubated with primary antibodies specific for ERK, phospho-ERK, JNK, phospho-JNK, p38 MAPK, phospho-p38 MAPK (all them from Cell Signaling Technology), NF-κB, IκB, and phospho-IκB (1:1000; Santa Cruz Biotechnology). […] After three washes with TBS–Tween 20, the membrane was hybridized with an HRP-conjugated secondary antibody for 1 h. […] The immunoreactive proteins were detected by means of a LAS-3000 Luminescent image analyzer (Fuji Photo Film Co., Ltd., Tokyo, Japan).
# [4] = test system: p38 MAPK; test: Western blot of LPS-induced MAPK phosphorylation in RAW 264.7 cells; assay type: cell-based, mouse; settings: 10–100 μg/mL, LPS 1 μg/mL
# Protocol: (§3) Macrophages were incubated with or without LPS in the presence or absence of the AMPs. Cells were harvested, washed twice with ice-cold Tris-HCl-buffered saline (TBS), and resuspended in lysis buffer [100 mM Tris-HCl, 5 mM EDTA, 50 mM NaCl, 50 mM β- glycerophosphate, 50 mM NaF (sodium fluoride), 0.5% NP-40, 1% sodium deoxycholate, 0.1 mM sodium orthovanadate, and 1% phenylmethylsulfonyl fluoride (PMSF)]. The cytosolic fraction was obtained from the supernatant after […] centrifugation at 4°C for 20 min. Samples (20 μg in terms of protein) were separated by sodium dodecyl sulfate-polyacrylamide gel electrophoresis (SDS-PAGE) in a 10% gel and transferred to polyvinylidene difluoride (PVDF) membranes. The membranes were blocked with 5% nonfat milk in TBS with Tween 20 (0.1%) for 2 h and then incubated with primary antibodies specific for ERK, phospho-ERK, JNK, phospho-JNK, p38 MAPK, phospho-p38 MAPK (all them from Cell Signaling Technology), NF-κB, IκB, and phospho-IκB (1:1000; Santa Cruz Biotechnology). […] After three washes with TBS–Tween 20, the membrane was hybridized with an HRP-conjugated secondary antibody for 1 h. The membranes were washed three times for 10 min and developed with the ECL Western Blotting Detection System (GE Healthcare, Incheon, Republic of Korea,). The immunoreactive proteins were detected by means of a LAS-3000 Luminescent image analyzer (Fuji Photo Film Co., Ltd., Tokyo, Japan).
# [5] = test system: ERK; test: as above; assay type: cell-based, mouse; settings: 10–100 μg/mL, LPS 1 μg/mL
# Protocol: as §3
# [6] = test system: JNK; test: as above; assay type: cell-based, mouse; settings: 10–100 μg/mL, LPS 1 μg/mL
# Protocol: as §3
# [7] = test system: NO production in LPS-stimulated RAW 264.7 cells; test: LPS-induced NO production, Griess reaction; assay type: cell-based, mouse; settings: 10, 50, or 100 μg/mL; LPS 1 μg/mL, 24 h; Griess reagent
# Protocol: NO levels in the culture supernatants were measured by the Griess reaction. Cells (10^6 cells/mL) were seeded in 6-well plates and pretreated with the indicated concentrations of AMP for 30 min before stimulation with 1 μg/mL LPS for 24 h. The sample supernatants were mixed with an equal volume of the Griess reagent (1% sulfanilamide in 5% phosphoric acid and 0.1% naphthyl ethylene diamine dihydrochloride), and then incubated at room temperature for 10 min. The absorbance was measured at 550 nm on a microplate reader (Thermo Fisher Co.). The nitrite concentration was determined using a dilution of sodium nitrite as a standard.
# [8] = test system: iNOS; test: Western blot of protein expression in LPS-stimulated RAW 264.7 cells; assay type: cell-based, mouse; settings: 10, 50, or 100 μg/mL, LPS 1 μg/mL, 24 h
# Protocol: as §2
# [9] = test system: COX-2; test: as above; assay type: cell-based, mouse; settings: 10, 50, or 100 μg/mL, LPS 1 μg/mL, 24 h
# Protocol: as §2
# [10] = test system: NF-κB (p65); test: Western blot of NF-κB translocation into the nucleus in LPS-stimulated RAW 264.7 cells; assay type: cell-based, mouse; settings: CSP32 1 h prior to LPS 1 μg/mL
# Protocol: as §2
# [11] = test system: IL-6 mRNA; test: RT-PCR of mRNA expression in LPS-stimulated RAW 264.7 cells; assay type: cell-based, mouse; settings: 10, 50, or 100 μg/mL, LPS 2–12 h, GAPDH control
# Protocol: (§4) Total RNA from the AMP-treated cells was prepared using the RNAiso Reagent (Takara) and was stored at −80°C until use. For the detection of iNOS, COX-2, TNF-α, IL-Iβ, and IL-6, total RNA was extracted after stimulation and treatment. The mRNA expression levels of iNOS, COX-2, TNF-α, IL-Iβ, and IL-6 in the treated cells were compared to the expression levels in control cells. One microgram of RNA was reverse-transcribed into cDNA and used as a template for PCR amplification. PCR was performed on a DNA Gene Cycler, under the following conditions: 40 cycles of denaturation at 94°C for 30 s, annealing at 58°C for 30 s, and primer extension at 72°C for 40 s. PCR products were analyzed on 1% agarose gels, and bands were visualized by ethidium bromide staining.
# [12] = test system: iNOS mRNA; test: as above; assay type: cell-based, mouse; settings: 10, 50, or 100 μg/mL, LPS 2–12 h, GAPDH control
# Protocol: as §4
# [13] = test system: COX-2 mRNA; test: as above; assay type: cell-based, mouse; settings: 10, 50, or 100 μg/mL, LPS 2–12 h, GAPDH control
# Protocol: as §4
# [14] = test system: TNF-α mRNA; test: as above; assay type: cell-based, mouse; settings: 10, 50, or 100 μg/mL, LPS 2–12 h, GAPDH control
# Protocol: as §4
# [15] = test system: IL-1β mRNA; test: as above; assay type: cell-based, mouse; settings: 10, 50, or 100 μg/mL, LPS 2–12 h, GAPDH control
# Protocol: as §4
compound,measurement,setting,value
CC[C@H](C)[C@H](N)C1=N[C@H](C(=O)N[C@@H](CC(C)C)C(=O)N[C@H](CCC(=O)O)C(=O)N[C@H](C(=O)N[C@H]2CCCCNC(=O)[C@H](CC(N)=O)NC(=O)[C@@H](CC(=O)O)NC(=O)[C@H](Cc3c[nH]cn3)NC(=O)[C@@H](Cc3ccccc3)NC(=O)[C@H]([C@@H](C)CC)NC(=O)[C@@H](CCCN)NC2=O)[C@@H](C)CC)CS1 [CSP32] ({Ileψ(thiazoline)Cys}-L[dE]IK[dOrn]I[dF]H[dD]N; lactam 4-C; N-terminus assumed),Residual activity (%),"[1]; heat treatment 30°C, 10 min",100%
same,Residual activity (%),"[1]; heat treatment 30°C, 30 min, SD",100±0.28%
same,Residual activity (%),"[1]; heat treatment 30°C, 60 min, SD",100±0.34%
same,Residual activity (%),"[1]; heat treatment 50°C, 10 min, SD",100±0.94%
same,Residual activity (%),"[1]; heat treatment 50°C, 30 min, SD",98.40±0.39%
same,Residual activity (%),"[1]; heat treatment 50°C, 60 min, SD",98.07±0.36%
same,Residual activity (%),"[1]; heat treatment 70°C, 10 min, SD",98.07±0.41%
same,Residual activity (%),"[1]; heat treatment 70°C, 30 min, SD",98.00±0.41%
same,Residual activity (%),"[1]; heat treatment 70°C, 60 min, SD",98.07±0.39%
same,Residual activity (%),"[1]; heat treatment 90°C, 10 min, SD",97.73±1.04%
same,Residual activity (%),"[1]; heat treatment 121°C, 15 min, SD",65.40±0.17%
same,Residual activity (%),"[2]; pH 2, then adjusted to pH 7.0, mean ± SD, SD",61.33±1.04%
same,Residual activity (%),"[2]; pH 3, citrate with Na2HPO4, then adjusted to pH 7.0, mean ± SD, SD",63.00±1.04%
same,Residual activity (%),"[2]; pH 4, citrate with Na2HPO4, then adjusted to pH 7.0, mean ± SD, SD",89.60±3.44%
same,Residual activity (%),"[2]; pH 6, citrate with Na2HPO4, then adjusted to pH 7.0, mean ± SD, SD",100±0.50%
same,Residual activity (%),[2]; pH 7,100%
same,Residual activity (%),"[2]; pH 8, Tris-HCl, then adjusted to pH 7.0, mean ± SD, SD",100±0.20%
same,Residual activity (%),"[2]; pH 9, Tris-HCl, then adjusted to pH 7.0, mean ± SD, SD",100±1.15%
same,Residual activity (%),"[2]; pH 10, NaHCO3 with NaOH, then adjusted to pH 7.0, mean ± SD, SD",98±3.38%
same,Residual activity (%),"[2]; pH 11, NaHCO3 with NaOH, then adjusted to pH 7.0, mean ± SD, SD",91.33±0.06%
same,Residual activity (%),"[2]; pH 12, then adjusted to pH 7.0, mean ± SD, SD",91.77±0.06%
same,Effect on LPS-increased level of p-IκBα,[3],attenuated by CSP32 treatment (dose dependently)
same,Effect on LPS-induced phosphorylation of p38 MAPK,[4],Phosphorylation decreased in a dose-dependent manner
same,Effect on LPS-induced phosphorylation of ERK,[5],Phosphorylation decreased in a dose-dependent manner
same,Effect on LPS-induced phosphorylation of JNK,[6],Phosphorylation decreased in a dose-dependent manner
same,Effect on LPS-induced NO production,[7],attenuated the LPS-induced production of NO to a statistically significant extent
same,Effect on LPS-induced iNOS protein expression,[8],significantly attenuated this induction in a dose-dependent manner
same,Effect on LPS-induced COX-2 protein expression,[9],significantly attenuated this induction in a dose-dependent manner
same,Effect on LPS-induced changes in the levels of p65 in the nucleus and cytoplasm,[10],attenuated
same,Effect on LPS-induced IL-6 mRNA expression,[11],dose-dependently attenuated the LPS-enhanced expression
same,Effect on LPS-induced iNOS mRNA expression,[12],significantly attenuated iNOS and COX-2 mRNA upregulation in a dose-dependent manner
same,Effect on LPS-induced COX-2 mRNA expression,[13],significantly attenuated iNOS and COX-2 mRNA upregulation in a dose-dependent manner
same,Effect on LPS-induced TNF-α mRNA expression,[14],dose-dependently attenuated the LPS-enhanced expression
same,Effect on LPS-induced IL-1β mRNA expression,[15],dose-dependently attenuated the LPS-enhanced expression
